In patent publication US20050069587A1, “Novel drug compositions and dosage forms of topiramate” (priority 2003, published 2005):
Converted amounts (≈) assume the structure as drawn. Read-outs that look alike come from different tables or passages of the source.

Key:
[1] = cited from earlier work
[2] = solubility of topiramate in de-ionized water and aqueous surfactant solutions; type: physicochemical; conditions: for solubility: water, thermodynamic from solid
Method: As defined herein, the solubility of a pharmaceutical agent is determined by adding the pharmaceutical agent to stirred or agitated de-ionized water maintained in a constant temperature bath at a temperature of 37° C. until no more pharmaceutical agent dissolves. The resulting solution saturated with the pharmaceutical agent is then filtered, typically under pressure through a 0.8-micron Millipore filter, and the concentration of the pharmaceutical agent in the solution is measured by any appropriate analytical method including gravimetric, ultraviolet spectrophometry, chromatography, and the like. The solubility of the pharmaceutical agent is measured at equilibrium.
A drug composition of the present invention was prepared as follows. Aqueous solutions of five surfactants were prepared. The selected surfactants were four grades of ethylene oxide/propylene oxide/ethylene oxide (LUTROL grades F127, F87, F 108, and F68) and PEG-40 stearate (MYRJ 52). Solutions were made at concentrations of 1, 5, and 15 weight percent. The aqueous surfactant blends solutions were chilled as necessary to promote complete dissolution of the surfactant prior to drug solubility studies.
The aqueous surfactant solutions were equilibrated to constant temperature in a 37° C. water bath. Then, neat topiramate drug was added slowly with stirring in approximately 10 mg increments to the surfactant solutions until no more drug dissolved. A control sample of drug dissolved in de-ionized water without surfactant was included for comparison purposes. The resulting saturated solutions of drug were filtered through 0.8 micron filters and analyzed for drug concentration by refractive index chromatography. The resulting solubility values were plotted as a function of both surfactant concentration and the hydrophilic-lipophilic balance value of each surfactant. FIG. 6 was constructed from the solubility values obtained and HLB data for each surfactant utilized.

[3] = room temperature; cited from earlier work

Compound: CC1(C)O[C@@H]2[C@@H](CO[C@@]3(COS(N)(=O)=O)OC(C)(C)O[C@@H]23)O1 [topiramate, 2,3:4,5-bis-O-(1-methylethylidene)-β-D-fructopyranose sulfamate]
- mean elimination half life ([1]; in vivo): about 21 hours
- time to peak plasma drug concentrations ([1]; oral administration of an immediate release dosage form): approximately 2 hours
- drug solubility in the presence of each surfactant compared to the control ([2]; LUTROL F127, F87, F108, F68, MYRJ 52 at 1, 5, 15 weight percent, 37° C.): higher
- solubility ([2]; de-ionized water without surfactant, 37° C., read-out: solubility in de-ionized water without surfactant (control)): 13 mg/mL (≈ 38.3 mM)
- solubility ([2]; de-ionized water, 37 °C, read-out: solubility in de-ionized water): ~12 mg/mL (≈ 35.4 mM)
- solubility ([2]; neat drug, stated range, read-out: solubility of neat topiramate): 9.8 to 13 mg/mL (≈ 28.9 to 38.3 mM)
- solubility of topiramate in water [3]: about 9.8 mg/ml
